Measurements taken from US9375000B2, “Pesticidal arylpyrrolidines” (Bayer Intellectual Property GmbH, priority 2011, dated 2016).
Like-named read-outs stand apart in the source and are kept apart here.

How the values were obtained:
[1] = system: Two-Spotted Spider Mite (Tetranychus urticae); assay: Two-spotted spider mite (Tetranychus urticae) spray test on kidney bean; assay type: in vivo; settings: after 7 days
Procedure, shortened: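 Kidney bean plants at the two-leaf stage carried 50-100 adult mites and were sprayed one day later with compound in DMF/polyoxyethylene alkyl phenyl ether diluted in water. Ammonium salt and penetration enhancer at 1000 ppm were added if needed. Acaricidal activity (% mites killed) was scored after 7 days in a greenhouse.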

[2] = system: Cucurbit Leaf Beetle (Aulacophora femoralis); assay: Cucurbit leaf beetle (Aulacophora femoralis) cucumber leaf dip test; assay type: in vivo; settings: after 7 days
Procedure, shortened: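 Cucumber leaves dipped in compound formulated with DMF and polyoxyethylene alkyl phenyl ether, diluted in water, with ammonium salt or ammonium salt plus penetration enhancer at 1000 ppm added if necessary; dried leaves placed on sterilized soil with five second-instar larvae. Kept at 25° C; larval mortality counted after 7 days.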

[3] = system: Larvae of Spodoptera litura; assay: Larvae of Spodoptera litura, method using artificial feeds; assay type: in vivo; settings: artificial feed, after 7 days
Procedure, shortened: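 Compound formulated in dimethylformamide with polyoxyethylene alkyl phenyl ether emulsifier, water-diluted and poured onto artificial diet. Five 3rd-instar Spodoptera litura larvae per cup, held at 25° C and 50-60% humidity. Mortality after 7 days expressed as pesticidal ratio.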

[4] = system: green peach aphids (Myzus persicae); assay: Myzus persicae spray test (MYZUPE); assay type: in vivo; settings: after 6 days
Protocol: (§1) Unless not mentioned otherwise, the test solutions were prepared as follows:
(§2) Solvent: 3 parts by weight Dimethylformamide
(§3) Emulsifier: 1 part by weight Polyoxyethylene alkyl phenyl ether
(§4) In order to make an appropriate formulation of an active compound, 1 part by weight of the active compound is mixed with the above mentioned amount of solvent and emulsifier and the mixture is diluted with water to a prescribed concentration. Ammonium salt or ammonium salt and penetration enhancer in a dosage of 1000 ppm are added to the desired concentration if necessary.
1 day before treatment, green peach aphids (Myzus persicae) are inoculated onto the testing plants, about 50 heads per leaf, 100 for 1 pot. A paper label is placed on each pot. Solutions are sprayed directly onto both insects and plants. After drying, the pots are placed in the greenhouse at 20° C.-25° C. After 6 days mortality in % is determined. An insecticidal activity of 100% means that all aphids were killed, whereas an insecticidal activity of 0% means that no aphid was killed.

Thrips palmi = Thrips palmi spray test (THRIPL); assay type: in vivo; settings: after 6 days
Procedure, shortened: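 Cucumber seedlings sprayed with compound formulated in DMF/polyoxyethylene alkyl phenyl ether and diluted in water, ammonium salt ± penetration enhancer at 1000 ppm added if needed. About 100 T. palmi eggs attached, plants held caged at 100% humidity, 23 °C. Percent activity scored from feeding damage after 6 days, 100 = no damage, 0 = as untreated.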

Ctenocephalides felis = assay: Test against Ctenocephalides felis (CTECFE), blood feeding; assay type: in vivo; settings: application rate 100 ppm in cattle blood; after 2 days
Protocol: (§5) Solvent: dimethyl sulfoxide
To produce a suitable preparation of active compound, 10 mg of active compound are dissolved in 0.5 ml solvent, and the concentrate is diluted with cattle blood to the desired concentration. Approximately 20 adult unfed (Ctenocepahlides felis) are placed in flea chambers. The blood chamber, sealed with parafilm on the bottom, are filled with cattle blood supplied with compound solution and placed on top of the flea chamber, so that the fleas are able to suck the blood. The blood chamber is heated to 37° C. whereas the flea chamber is kept at room temperature.
After 2 days mortality in % is determined. 100% means that all the fleas have been killed; 0% means that none of the fleas have been killed.

Musca domestica = assay: Test against Musca domestica; assay type: in vivo; settings: application rate 100 ppm; after 2 days
Protocol: as §5
To produce a suitable preparation of active compound, 10 mg of active compound are dissolved in 0.5 ml solvent, and the concentrate is diluted with water to the desired concentration. Prior to the assay, a piece of kitchen sponge is soaked with a mixture of sugar and compound solution and placed into a container. 10 adults (Musca domestica) are placed into the container and closed with a perforated lid. After 2 days mortality in % is determined. 100% means that all the flies have been killed; 0% means that none of the flies have been killed.

[5] = log P by HPLC on reversed phase columns (EEC directive 79/831 Annex V.A8); assay type: physicochemical
Protocol: Calibration was done with not branched alkan2-ones (with 3 to 16 carbon atoms) with known log P-values (measurement of log P values using retention times with linear interpolation between successive alkanones). lambda-maX-values were determined using UV-spectra from 200 nm to 400 nm and the peak values of the chromatographic signals.

[6] = system: Tobacco Cutworm (Spodoptera litura) Larvae; assay: Tobacco cutworm (Spodoptera litura) larvae, sweet potato leaf dip test; assay type: in vivo; settings: dead larvae after 7 days
Protocol: as §1, §2, §3, §4
Leaves of sweet potato were immersed in the test solution at the appropriate concentration, and the leaves were dried in air. The leaves were then placed in a petri dish having a diameter of 9 cm, and ten Spodoptera litura at third instar larvae were released therein. The petri dishes were placed in a temperature-controlled chamber at 25° C. After 2 days and 4 days more sweet potato leaves were added. After 7 days, the number of dead larvae was counted to calculate the insecticidal activity. An insecticidal activity of 100% means that all larvae were killed, whereas an insecticidal activity of 0% means that no larva was killed. In the current test, the results of two petri dishes for each treatment were averaged.

[7] = system: adult engorged female Boophilus microplus ticks; assay: Test against Boophilus microplus (dip); assay type: in vivo; settings: application rate 100 ppm; dip; after 7 days
Protocol: as §5
To produce a suitable preparation of active compound, 10 mg of active compound are dissolved in 0.5 ml solvent, and the concentrate is diluted with water to the desired concentration. Eight to ten adult engorged female Boophilus microplus ticks are placed in perforated plastic beakers and immersed in aqueous compound solution for one minute. Ticks are transferred to a filter paper in a plastic tray. Egg deposition of fertile eggs is monitored after. After 7 days mortality in % is determined. 100% means that all the ticks have been killed; 0% means that none of the ticks have been killed.

[8] = active compound concentration 4 ppm
[9] = active compound concentration 100 ppm
[10] = active compound concentration 20 ppm

Row | Structure (SMILES) | acaricidal activity [1, 8] [%] | insecticidal activity [2, 8] [%] | insecticidal activity (pesticidal ratio) [3, 8] [%] | insecticidal activity (mortality) [4, 9] [%] | insecticidal activity (by feeding damage degree) (Thrips palmi; [9]) [%] | insecticidal activity [2, 10] [%] | insecticidal activity [6, 8] [%] | other results
1 | O=C(NCc1ccc(N2CCC(c3cc(Cl)c(Cl)c(Cl)c3)(C(F)(F)F)C2O)cc1Cl)C1CC1 (stereo not drawn) [A1-16] | 100 | 100 | 100 | 100 | 98 | – | – | activity (mortality) (Ctenocephalides felis): 90%; activity (mortality) (Musca domestica): 80%
2 | O=C(NCc1ccc(N2CCC(c3cc(Cl)c(F)c(Cl)c3F)(C(F)(F)F)C2O)nc1C(F)(F)F)C1CC1 (mixture of isomers) [A3-214] | 100 | 100 | 100 | – | – | 100 | – | acaricidal activity [1, 10]: 100%; insecticidal activity (pesticidal ratio) [3, 10]: 100%; insecticidal activity (mortality) [4, 10]: 100%; insecticidal activity (by feeding damage degree) (Thrips palmi; [8]): 90%
3 | O=C(CC(F)(F)F)NCc1ccc(N2CCC(c3cc(Cl)c(Cl)c(Cl)c3)(C(F)(F)F)C2O)cc1Cl (stereo not drawn) [A1-18] | 100 | 100 | 100 | 100 | 90 | – | – | –
4 | O=C(NCc1ccc(N2CCC(c3cc(C(F)(F)F)cc(C(F)(F)F)c3)(C(F)(F)F)C2O)nc1Cl)C1CC1 (stereo not drawn) [A3-148] | – | 100 | 100 | – | 90 | – | – | logP [5]: 3.96
5 | COCCC(=O)NCc1ccc(N2CCC(c3cc(C(F)(F)F)cc(C(F)(F)F)c3)(C(F)(F)F)C2O)nc1Br (mixture of isomers) [A3-162] | – | – | – | – | – | – | – | insecticidal activity [6, 10]: 100%; acaricidal activity [1, 10]: 90%; logP [5]: 3.71
6 | O=C(NCc1ccc(N2CCC(c3cc(Cl)c(Cl)c(Cl)c3)(C(F)(F)F)C2O)nc1Cl)C1CC1 (stereo not drawn) [A3-104] | 100 | – | – | – | – | 100 | 100 | insecticidal activity (mortality) [4, 10]: 100%; insecticidal activity (by feeding damage degree) (Thrips palmi; [10]): 98%
7 | CCC(=O)NCc1cnc(N2CCC(c3cc(Cl)c(Cl)c(Cl)c3)(C(F)(F)F)C2O)nc1C(F)(F)F (stereo not drawn) [A4-13] | – | – | – | 90 | 98 | – | – | acaricidal activity [1, 10]: 100%; insecticidal activity (pesticidal ratio) [3, 10]: 100%; insecticidal activity (by feeding damage degree) (Thrips palmi; [10]): 98%
8 | O=C(NCc1ccc(N2CCC(c3cc(Cl)cc(Cl)c3)(C(F)(F)F)C2O)cc1F)C1CC1 (mixture of isomers) [A1-99] | 90 | – | – | – | – | 100 | 100 | log P [5]: 3.47
9 | CN(C)C(=O)NCc1ccc(N2CCC(c3cc(Cl)cc(Cl)c3)(C(F)(F)F)C2O)cc1C(F)(F)F (stereo not drawn) [A1-368] | – | – | – | – | – | – | – | acaricidal activity [1, 9]: 100%; log P ([5]; HPLC on reversed phase columns): 3.81
10 | CCC(=O)NCc1cnc(N2CCC(c3cc(Cl)c(F)c(Cl)c3)(C(F)(F)F)C2O)nc1C(F)(F)F (stereo not drawn) [A4-101] | 100 | – | – | – | – | 100 | 100 | insecticidal activity (mortality) [4, 10]: 100%; insecticidal activity (by feeding damage degree) (Thrips palmi; [10]): 98%
11 | O=C(NCc1cc(F)c(N2CCC(c3cc(C(F)(F)F)cc(C(F)(F)F)c3)(C(F)(F)F)C2O)nc1Cl)C1CC1 (stereo not drawn) [A3-381] | – | 100 | – | 98 | 98 | 100 | – | insecticidal activity (pesticidal ratio) [3, 10]: 100%; activity (mortality) [7]: 80%
12 | CCNC(=O)NCc1ccc(N2CCC(c3cc(Cl)cc(Cl)c3)(C(F)(F)F)C2O)cc1C(F)(F)F (stereo not drawn) [A1-369] | – | – | – | – | – | – | 100 | acaricidal activity [1, 9]: 100%; log P ([5]; HPLC on reversed phase columns): 3.73
